From US10947575B2, “Rapid antimicrobial susceptibility test, based on an analysis of changes in morphology and growth pattern of a microbial cell under different concentrations of various antimicrobial agents, and automated cell image analysis system therefor” (priority 2014, dated 2021)
Like-named read-outs stand apart in the source and are kept apart here.

Key:
E. faecalis ATCC 29212 [1] = assay: AST by analysis of changes in morphology and growth pattern of a microbial cell (MAC 2.0 chip imaging); format: cell-based; settings: RRG = relatively rapid growth, RSG = relatively slow growth
Source text: (§1) Four reference strains (E. coli ATCC 25922, S. aureus ATCC 29213, P. aeruginosa ATCC 27853, and E. faecalis ATCC 29212) were used as objective strains, in accordance with Clinical and Laboratory Standards Institute (CLSI) guidelines. […] The bacterial cell in MAC 2.0TM (QuantaMatrix) was monitored through a S Plan Fluor ELWD 60X (NA 1.49) lens of an inverted optical microscope (Eclipse Ti-Nikon, IX71-Olympus) provided in a heating system, and then, an electron multiplying CCD camera (QuantEM:512SC Photometrics for Eclipse Ti) was used to obtain images of a region where is adjacent to an interface between the agarose well of MAC 2.0TM and the antimicrobial agents well, over time.

S. aureus ATCC 29213 [2] = assay: as above; format: cell-based; settings: RRG = relatively rapid growth, RSG = relatively slow growth
Source text: as §1

E. faecalis ATCC 29212 [3] = assay: MIC by the proposed method (SCMA), from morphology and growth pattern changes; format: cell-based
Source text: (§2) The bacterial cell in MAC 2.0™ (QuantaMatrix) was monitored through a S Plan Fluor ELWD 60X (NA 1.49) lens of an inverted optical microscope (Eclipse Ti—Nikon, IX71—Olympus) provided in a heating system, and then, an electron multiplying CCD camera (QuantEM:512SC Photometrics for Eclipse Ti) was used to obtain images of a region where is adjacent to an interface between the agarose well of MAC 2.0™ and the antimicrobial agents well, over time. […] In the AST method according to the inventive concept, minimal inhibitory concentration (MIC) was measured using the changes in morphology and growth pattern of the four reference strains (i.e., E. coli ATCC 25922, S. aureus ATCC 29213, P. aeruginosa ATCC 27853, and E. faecalis ATCC 29212) and was compared with MIC quality control (QC) per CLSI guidelines.

S. aureus ATCC 29213 [4] = assay: as above; format: cell-based
Source text: as §2

S. aureus ATCC 29213 [5] = settings: time to result 16~20 hr; cited from earlier work
E. faecalis ATCC 29212 [6] = settings: time to result 16~20 hr, cited from earlier work
E. coli ATCC 25922 [7] = assay: AST by analysis of changes in morphology and growth pattern of a microbial cell (MAC 2.0 chip imaging); format: cell-based; settings: Normal / Filament / Swelling
Source text: as §1

P. aeruginosa ATCC 27853 [8] = assay: as above; format: cell-based; settings: Normal / Filament / Swelling
Source text: as §1

E. coli ATCC 25922 [9] = assay: MIC by the proposed method (SCMA), from morphology and growth pattern changes; format: cell-based; settings: time to result 3 hr
Source text: as §2

P. aeruginosa ATCC 27853 [10] = assay: as above; format: cell-based; settings: time to result 3 hr
Source text: as §2

E. coli ATCC 25922 [11] = settings: time to result 16~20 hr; cited from earlier work
P. aeruginosa ATCC 27853 [12] = settings: time to result 16~20 hr; cited from earlier work
[13] = time to result 4 hr, unit assumed

Compound | Criteria (change in morphology and growth pattern) (E. faecalis ATCC 29212 [1]) | Criteria (change in morphology and growth pattern) (S. aureus ATCC 29213 [2]) | SCMA Results (MIC) (E. faecalis ATCC 29212 [3]; time to result 4 hr) | CLSI QC range (MIC) (S. aureus ATCC 29213 [5]) | CLSI QC range (MIC) (E. faecalis ATCC 29212 [6]) | Criteria (change in morphology and growth pattern) (E. coli ATCC 25922 [7]) | Criteria (change in morphology and growth pattern) (P. aeruginosa ATCC 27853 [8]) | SCMA Results (MIC) (E. coli ATCC 25922 [9]; unit assumed) [µg/mL] | CLSI QC range (MIC) (E. coli ATCC 25922 [11]) | CLSI QC range (MIC) (P. aeruginosa ATCC 27853 [12]) | further results
CN[C@H](CC(C)C)C(=O)N[C@H]1C(=O)N[C@@H](CC(N)=O)C(=O)N[C@H]2C(=O)N[C@H]3C(=O)N[C@H](C(=O)N[C@H](C(=O)O)c4cc(O)cc(O)c4-c4cc3ccc4O)[C@H](O)c3ccc(c(Cl)c3)Oc3cc2cc(c3O[C@@H]2O[C@H](CO)[C@@H](O)[C@H](O)[C@H]2O[C@H]2C[C@](C)(N)[C@H](O)[C@H](C)O2)Oc2ccc(cc2Cl)[C@H]1O [Vancomycin] | Normal growth | normal | 2~4 | 0.5~2 | 1~4 | – | – | – | – | – | SCMA Results (MIC) (S. aureus ATCC 29213 [4]; [13]): 1 µg/mL
CCN1CCN(C(=O)N[C@@H](C(=O)N[C@@H]2C(=O)N3[C@@H]2SC(C)(C)[C@@H]3C(=O)O)c2ccccc2)C(=O)C1=O [Piperacillin] | – | – | – | – | – | Filament formation | Filament | 2 | 1~4 | 1~8 | SCMA Results (MIC) (P. aeruginosa ATCC 27853 [10]): 4~8
C[C@@H](O)[C@H]1C(=O)N2C(C(=O)O)=C(SCCN=CN)C[C@H]12 [Imipenem] | – | – | – | – | – | – | – | 0.12 | – | – | SCMA Results (MIC) (P. aeruginosa ATCC 27853 [10]; unit assumed): 1 µg/mL; SCMA Results (MIC) (S. aureus ATCC 29213 [4]; [13]): 0.03 µg/mL
Penicillin | Normal | Normal | 1~2 | 0.25~2 | 1~4 | – | – | – | – | – | SCMA Results (MIC) (S. aureus ATCC 29213 [4]; [13]): 0.5 µg/mL
NCC[C@H](O)C(=O)N[C@@H]1C[C@H](N)[C@@H](O[C@H]2O[C@H](CN)[C@@H](O)[C@H](O)[C@H]2O)[C@H](O)[C@H]1O[C@H]1O[C@H](CO)[C@@H](O)[C@H](N)[C@H]1O [Amikacin] | – | – | – | – | – | Normal growth | Normal | – | 0.5~4 | 1~4 | SCMA Results (MIC) (E. coli ATCC 25922 [9]): 0.5~1; SCMA Results (MIC) (P. aeruginosa ATCC 27853 [10]): 1~2
[H]/N=C(/N)N[C@H]1[C@H](O)[C@@H](O)[C@H](O[C@@H]2O[C@@H](C)[C@](O)(C=O)[C@H]2O[C@@H]2O[C@@H](CO)[C@H](O)[C@@H](O)[C@@H]2NC)[C@@H](N/C(N)=N\[H])[C@@H]1O [Streptomycin High Level, Streptomycin] | Normal | – | ≤ 500 µg/mL | – | – | – | – | – | – | – | CLSI QC range (MIC) (E. faecalis ATCC 29212 [6]; unit assumed): ≤ 500 µg/mL
Teicoplanin | Normal | – | 0.5 µg/mL | – | 0.25~1 | – | – | – | – | – | –
CO[C@@]1(NC(=O)Cc2cccs2)C(=O)N2C(C(=O)O)=C(COC(N)=O)CS[C@@H]21 [Cefoxitin] | – | – | – | – | – | Filament | – | 2 | 2~8 | – | –
Cc1nnc(SCC2=C(C(=O)O)N3C(=O)[C@@H](NC(=O)Cn4cnnn4)[C@H]3SC2)s1 [Cefazolin] | – | – | – | – | – | Filament | – | 2 | 1~4 | – | –
CC(=O)NC[C@H]1CN(c2ccc(N3CCOCC3)c(F)c2)C(=O)O1 [Linezolid] | RSG | RSG | 1~2 | 1~4 | 1~4 | – | – | – | – | – | Criteria (change in morphology and growth pattern) (E. faecalis ATCC 29212 [1]; listed as linezolid): Relatively slow growth (RSG); SCMA Results (MIC) (S. aureus ATCC 29213 [4]; time to result 4 hr): 1~4
CO[C@H]1/C=C/O[C@@]2(C)Oc3c(C)c(O)c4c(O)c(c(/C=N/N5CCN(C)CC5)c(O)c4c3C2=O)NC(=O)/C(C)=C\C=C\[C@H](C)[C@H](O)[C@@H](C)[C@@H](O)[C@@H](C)[C@H](OC(C)=O)[C@@H]1C [Rifampin] | RSG | RSG | 0.5 µg/mL | 0.004~0.015 | 0.5~4 | – | – | – | – | – | SCMA Results (MIC) (S. aureus ATCC 29213 [4]; 6 hr): 0.004~0.08 (6 hr)
Cc1onc(-c2ccccc2)c1C(=O)N[C@@H]1C(=O)N2[C@@H]1SC(C)(C)[C@@H]2C(=O)O [Oxacillin] | – | RRG | – | 0.12~0.5 | – | – | – | – | – | – | SCMA Results (MIC) (S. aureus ATCC 29213 [4]; [13]): 0.5 µg/mL
CCn1cc(C(=O)O)c(=O)c2cc(F)c(N3CCNCC3)cc21 [Norfloxacin] | RRG | – | 2~4 | – | 2~8 | Normal | – | – | 0.03~0.12 | – | SCMA Results (MIC) (E. coli ATCC 25922 [9]): 0.03~0.06
CO/N=C(\C(=O)N[C@@H]1C(=O)N2C(C(=O)[O-])=C(C[N+]3(C)CCCC3)CS[C@H]12)c1csc(N)n1 [Cefepime] | – | – | – | – | – | Filament | Filament | – | 0.015~0.12 | 0.5~4 | SCMA Results (MIC) (E. coli ATCC 25922 [9]): 0.03~0.06; SCMA Results (MIC) (P. aeruginosa ATCC 27853 [10]): 0.5~2
C[C@H]1COc2c(N3CCN(C)CC3)c(F)cc3c(=O)c(C(=O)O)cn1c23 [Levofloxacin] | – | – | 1 µg/mL | – | – | – | – | – | – | – | SCMA Results (MIC) (S. aureus ATCC 29213 [4]; time to result 4 hr): 0.12~0.25
C[C@H]1[C@H](NC(=O)/C(=N\OC(C)(C)C(=O)O)c2csc(N)n2)C(=O)N1S(=O)(=O)O [Aztreonam] | – | – | – | – | – | Filament | Filament | 0.12 | 0.06~0.25 | 2~8 | SCMA Results (MIC) (P. aeruginosa ATCC 27853 [10]): 2~4
CC1(C)S[C@@H]2[C@H](NC(=O)[C@H](N)c3ccccc3)C(=O)N2[C@H]1C(=O)O [Ampicillin] | Normal | Normal | 0.5~1 | 0.5~2 | 0.5~2 | Filament | – | – | 2~8 | – | SCMA Results (MIC) (E. coli ATCC 25922 [9]): 2~4; SCMA Results (MIC) (S. aureus ATCC 29213 [4]; [13]): 1 µg/mL
CC[C@H]1OC(=O)[C@H](C)[C@@H](O[C@H]2C[C@@](C)(OC)[C@@H](O)[C@H](C)O2)[C@H](C)[C@@H](O[C@@H]2O[C@H](C)C[C@H](N(C)C)[C@H]2O)[C@](C)(O)C[C@@H](C)C(=O)[C@H](C)[C@@H](O)[C@]1(C)O [Erythromycin] | RSG | RSG | – | 0.25~1 | 1~4 | – | – | – | – | – | SCMA Results (MIC) (E. faecalis ATCC 29212 [3]; 6 hr): 1 (6 hr); SCMA Results (MIC) (S. aureus ATCC 29213 [4]; [13]): 0.25 µg/mL
CC1(C)S[C@@H]2[C@H](NC(=O)[C@H](C(=O)O)c3ccsc3)C(=O)N2[C@H]1C(=O)O [Ticarcilin] | – | – | – | – | – | – | Filament | – | – | 8~32 | SCMA Results (MIC) (P. aeruginosa ATCC 27853 [10]; unit assumed): 16 µg/mL
NC[C@H]1O[C@H](O[C@H]2[C@H](O)[C@@H](O[C@H]3O[C@H](CO)[C@@H](O)[C@H](N)[C@H]3O)[C@H](N)C[C@@H]2N)[C@H](N)C[C@@H]1O [Tobramycin] | – | – | – | – | – | – | Normal | – | – | 0.25~1 | –
CC(C)(O/N=C(\C(=O)N[C@@H]1C(=O)N2C(C(=O)[O-])=C(C[n+]3ccccc3)CS[C@H]12)c1csc(N)n1)C(=O)O [Ceftazidime] | – | – | – | – | – | Filament | Filament formation | 0.5 | 0.06~0.5 | 1~4 | SCMA Results (MIC) (P. aeruginosa ATCC 27853 [10]): 2~4
C[C@@H](O)[C@H]1C(=O)N2C(C(=O)O)=C(S[C@@H]3CN[C@H](C(=O)N(C)C)C3)[C@H](C)[C@H]12 [Meropenem] | – | – | – | – | – | – | Swelling | – | – | 0.25~1 | SCMA Results (MIC) (P. aeruginosa ATCC 27853 [10]; unit assumed): 1 µg/mL
CO/N=C(\C(=O)N[C@@H]1C(=O)N2C(C(=O)O)=C(COC(C)=O)CS[C@H]12)c1csc(N)n1 [Cefotaxime] | – | – | – | – | – | Filament | Filament | 0.06 | – | 8~32 | SCMA Results (MIC) (P. aeruginosa ATCC 27853 [10]; unit assumed): 16 µg/mL
